Patent EP4205737A1, “COMPOSITION FOR PREVENTION, AMELIORATION, OR TREATMENT OF INFLAMMATORY DISEASES OR IMMUNE DISEASES COMPRISING GANCAONIN N AS ACTIVE INGREDIENT” (UNIVERSITY-INDUSTRY COOPERATION GROUP OF KYUNG HEE …, priority 2020, dated 2022)

Key:
[1] = system: A549 cells; experiment: Cell viability analysis (MTT), A549 cells; format: cell-based, human; settings: A549 cells, 5, 10, 20, 40 µM, 24 hours, compared to the control group (FIG. 1B)
Procedure: RAW264.7 murine macrophage cells were purchased from Korean Cell Line Bank (in Seoul, South Korea). A549 human alveolar basal epithelial cells were purchased from American Type Culture Collection (in ATCC, MD, USA). The cells were cultured in DMEM medium (manufactured by Corning Inc., NY, USA) containing 10% FBS (manufactured by Gibco, NY, USA) and 1X antibiotic-antimycotic solution (manufactured by ABAM, Corning Inc., NY, USA) under conditions of 37°C and 5% CO2.
To evaluate the cytotoxicity of gancaonin N, RAW264.7 cells and A549 cells were dispensed into 96-well plates (1 × 10^4 cells/well) and cultured under conditions of 37°C and 5% CO2. After the culturing, the cells were treated with gancaonin N at concentrations of 5, 10, 20, or 40 µM for 24 hours, and MTT solution (5 mg/mL) was added to each well. After adding 100 µL of dimethyl sulfoxide (DMSO, manufactured by Sigma-Aldrich, St. Louis, MO, USA), the absorbance was measured at 540 nm using a microplate reader (manufactured by Bio-Rad Hercules, CA, USA).
To examine the cytotoxicity of gancaonin N, the inventors treated Raw264.7 cells and A549 cells with gancaonin N according to the methods of Examples 1 to 4 and then measured cell viability.

[2] = system: IL-1β; experiment: Real-time PCR of IL-1β mRNA in LPS-stimulated A549 cells; format: cell-based, human; settings: LPS 5 ug/mL, 5 to 40 µM, 24 hours, effect proportional to amount (FIG. 3B)
Procedure: A549 cells were dispensed into 6-well plates (1 × 10^6 cells/well) and cultured under conditions of 37°C and 5% CO2. After the culturing, the A549 cells were treated with of 5 ug/mL of lipopolysaccharide (LPS) and with 5 µM to 40 µM of gancaonin N, and the cells were then cultured for 24 hours. Afterwards, total RNA was isolated from each treated cell using Hybrid-RTM (GeneAll, South Korea). The isolated total RNA (500 ng) was converted to cDNA sequentially through incubation at 55°C for 60 minutes using oligo (dT) and incubation at 85°C for 5 minutes, and the cDNA was stored at 4°C until being used. In addition, real-time quantitative PCR was performed using Universal SYBR Green Master Mix (Applied Biosystems, USA), and the cDNA was amplified under conditions described below. 95°C for 15 minutes, then 95°C for 30 seconds, 59°C for 30 seconds, and 72°C for 30 seconds were repeated 40 times. […]
To investigate the inhibitory effect of gancaonin on the expression levels of pro-inflammatory cytokines, the mRNA expression levels of tumor necrosis factor-α (hereinafter referred to as TNF-α), interleukin-1 beta (hereinafter referred to as IL-1β), and interleukin 6 (hereinafter referred to as IL-6) which are all known as pro-inflammatory cytokines were measured. […]

[3] = system: IL-6; experiment: Western blotting of IL-6 protein in LPS-stimulated A549 cells; format: cell-based, human; settings: LPS 5 µg/mL, 5 to 40 µM (FIG. 4C)
Procedure: (§1) RAW264.7 cells and A549 cells were dispensed into 6-well plates (1 × 10^6 cells/well) and cultured under conditions of 37°C and 5% CO2. After the culturing, the Raw 264.7 cells were treated with 1 µg/mL of lipopolysaccharide (LPS) and the A549 cells were treated with 5 µg/mL of lipopolysaccharide (LPS) and with 5 µM to 40 µM of gancaonin N, and the cells were cultured for 24 hours or 6 hours. Then, the cells were lysed using a lysis buffer. In addition, the left lung extracted from each mouse was lysed using RIPA buffer. SDS-PAGE electrophoresis was performed on the cell and tissue lysates to separate proteins by side, and 5% bovine serum albumin was used for culturing and for blocking antibodies against PGE2 (1:500), IL-1β (1:500), IL-6 (1:500), TNF-α (1:500), i-NOS (1:500), COX-2 (1:1000), P-ERK1/2 (1:1000), ERK1/2 (1:3000), P-p38 (1:1000), p38 (1:3000), NF-κB p65 (1:1000), Lamin B1 (1:1000), and β-actin (1: 5,000).
For the pro-inflammatory cytokines whose mRNA expression inhibition was confirmed as above, the expression level of the protein encoded by the mRNA was further checked. To determine the protein expression level, A549 cells were treated with LPS and gancaonin N as described in Examples 1 to 8, and the protein expression levels were checked.

[4] = system: p38; experiment: MAPK/NF-κB signaling pathway: p38 in LPS-stimulated A549 cells; format: cell-based, human
Procedure: as §1
To identify through which pathway the anti-inflammatory response occurs, the role of gancaonin N in the MAPK/NF-κB signaling pathway was investigated. […]

[5] = system: IL-1β; experiment: Western blotting of IL-1β in lung of LPS-induced acute lung injury mouse model; format: in vivo, BALB/c mice; settings: mice, 10 mg/kg or 30 mg/kg intraperitoneally, LPS-induced ALI, Western blotting (FIG. 8)
Procedure: (§2) 25 6-week-old female BALB/c mice having a weight of 18g to 20 g were purchased from BioLink (DBL CO., Eumseong, Chungcheongbuk-do, Korea), and reared in the animal laboratory of KyungHee University. To establish an LPS-induced acute lung injury model, all the mice were divided into five groups each group of which consisted of 5 mice, and the five groups were referred to as control, vehicle (only LPS treatment), gancaonin N (10 mg/kg), gancaonin N (30 mg/kg), and dexamethasone (3 mg/kg). Gancaonin N was intraperitoneally injected at a dose of 10 mg/kg or 30 mg/kg, and dexamethasone was intraperitoneally injected at a dose of 3 mg/kg as a positive control group. In addition, the control and vehicle groups were intraperitoneally injected with 4% DMSO in which gancaonin N was dissolved. Then, 10 µg/50 µL of LPS was intratracheally administered to the mice except for the control group one hour later (the control group mice were administered 50 µL of PBS), and the mice were sacrificed 12 hours later.
(§3) RAW264.7 cells and A549 cells were dispensed into 6-well plates (1 × 10^6 cells/well) and cultured under conditions of 37°C and 5% CO2. […]
(§4) To specifically investigate whether gancaonin N can inhibit pro-inflammatory factors in a mouse model, the protein expression levels of COX-2, IL-1β, and TNF-α were measured by Western blotting as described in Examples 1 to 6 above.

[6] = system: TNF-α; experiment: Western blotting of TNF-α in lung of LPS-induced acute lung injury mouse model; format: in vivo, BALB/c mice; settings: mice, 10 mg/kg or 30 mg/kg intraperitoneally, LPS-induced ALI, Western blotting (FIG. 8)
Procedure: as §2, §3, §4

COc1ccc(-c2coc3cc(O)c(CC=C(C)C)c(O)c3c2=O)c(O)c1 [gancaonin N, 5,7-dihydroxy-3-(2-hydroxy-4-methoxyphenyl)-6-(3-methylbut-2-enyl)chromen-4-one]
cell viability [1]: did not decrease | mRNA expression of IL-1β [2]: significantly inhibited | protein expression of IL-6 [3]: significantly inhibited | activity/protein expression levels of p38 ([4]; 5µM to 40 µM 2 hours before LPS treatment (FIG. 5B)): significantly reduced | amount of gancaonin N at which the inhibitory effect on the activity/protein expression levels of p38 was most excellent ([4]; LPS, tested 5µM to 40 µM): 20 µM | protein expression level of IL-1β in lung [5]: significantly reduced | protein expression level of TNF-α in lung [6]: significantly reduced
